Measured values taken from ChEMBL document CHEMBL6120978, “Anticancer activity of salinomycin quaternary phosphonium salts” (Eur J Med Chem, 2025).
The source made the active and inactive calls. The calls are words filed in the database; no cut-off is given here.

Key:
Mitochondrial membrane [1] = assay: Induction of mitochondrial membrane potential loss in human MDA-MB-231 cells assessed as green fluorescence at IC50 incubated for 48 hrs MitoTracker Green FM staining based flow cytometry analysis (reference value: 8.86 %); assay type: cell membranes
[2] = Selectivity index, ratio of IC50 for cytotoxicity against chinese hamster V79 cells to IC50 for cytotoxicity against human MDA-MB-231 cells; assay type: toxicity, cell-based; conditions: V79 cells versus MDA-MB-231 cells, read-out: Ratio IC50
MDA-MB-231 [3] = assay: Induction of cell cycle arrest in human […] cells assessed as accumulation of cells at S phase at IC50 incubated for 24 hrs by propidium iodide staining based flow cytometry analysis; assay type: functional
[4] = system: Staphylococcus epidermidis; assay: Antimicrobial activity against Staphylococcus epidermidis ATCC 12228 incubated for 18 hrs by twofold microdilution method; assay type: functional
Staphylococcus aureus [5] = assay: Antimicrobial activity against Staphylococcus aureus ATCC 25923 incubated for 18 hrs by twofold microdilution method; assay type: functional
Staphylococcus aureus [6] = assay: Antimicrobial activity against Staphylococcus aureus ATCC 29213 incubated for 18 hrs by twofold microdilution method; assay type: functional
Mitochondrial membrane [7] = assay: Induction of mitochondrial membrane potential loss in human A549 cells assessed as green fluorescence at IC50 incubated for 48 hrs MitoTracker Green FM staining based flow cytometry analysis (reference value: 8.93 %); assay type: cell membranes
A549 [8] = assay: Induction of cell cycle arrest in human A549 cells assessed as accumulation of cells at G2 phase at IC50 incubated for 24 hrs by propidium iodide staining based flow cytometry analysis (reference value: 20.8 %); assay type: functional
A549 [9] = assay: Induction of apoptosis in human A549 cells assessed as viable cells at IC50 incubated for 72 hrs by Annexin V-FITC staining based flow cytometry analysis (reference value: 95.49 %); assay type: functional
[10] = Selectivity index, ratio of IC50 for cytotoxicity against chinese hamster V79 cells to IC50 for cytotoxicity against human SW480 cells; assay type: toxicity, cell-based; conditions: V79 cells versus SW480 cells, read-out: Ratio IC50
MDA-MB-231 [11] = assay: Induction of apoptosis in human MDA-MB-231 cells assessed as viable cells at IC50 incubated for 72 hrs by Annexin V-FITC staining based flow cytometry analysis (reference value: 91.53 %); assay type: functional
A549 [12] = assay: Induction of cell cycle arrest in human A549 cells assessed as accumulation of cells at S phase at IC50 incubated for 24 hrs by propidium iodide staining based flow cytometry analysis (reference value: 21.6 %); assay type: functional
MDA-MB-231 [13] = assay: Induction of apoptosis in human MDA-MB-231 cells assessed as early apoptotic cells at IC50 incubated for 72 hrs by Annexin V-FITC staining based flow cytometry analysis (reference value: 4.23 %); assay type: functional
A549 [14] = assay: Induction of cell cycle arrest in human A549 cells assessed as accumulation of cells at SubG1 phase at IC50 incubated for 24 hrs by propidium iodide staining based flow cytometry analysis (reference value: 0.71 %); assay type: functional
[15] = Selectivity index, ratio of IC50 for cytotoxicity against human HaCaT cells to IC50 for cytotoxicity against human SW620 cells; assay type: toxicity, cell-based; conditions: HaCaT cells versus SW620 cells, read-out: Ratio IC50
MDA-MB-231 [16] = assay: Effect on mitochondrial function in human MDA-MB-231 cells assessed as increase in MTRed CMXRos positive cells at IC50 incubated for 48 hrs by MitoTracker Red CMXRos staining based flow cytometry analysis relative to control; assay type: functional
[17] = Cytotoxicity against chinese hamster V79 cells incubated for 72 hrs by MTT assay; assay type: toxicity, cell-based, Cricetulus griseus
A549 [18] = assay: Induction of apoptosis in human A549 cells assessed as early apoptotic cells at IC50 incubated for 72 hrs by Annexin V-FITC staining based flow cytometry analysis (reference value: 1.68 %); assay type: functional
MDA-MB-231 [19] = assay: Effect on mitochondrial mass in human MDA-MB-231 cells assessed as increase in MTGreen positive cells at IC50 incubated for 48 hrs by MitoTracker Green FM staining based flow cytometry analysis relative to control; assay type: functional
A549 [20] = assay: Effect on mitochondrial function in human A549 cells assessed as increase in MTRed CMXRos positive cells at IC50 incubated for 48 hrs by MitoTracker Red CMXRos staining based flow cytometry analysis relative to control; assay type: functional
[21] = Selectivity index, ratio of IC50 for cytotoxicity against chinese hamster V79 cells to IC50 for cytotoxicity against human SW620 cells; assay type: toxicity, cell-based; conditions: V79 cells versus SW620 cells, read-out: Ratio IC50
MDA-MB-231 [22] = assay: Effect on mitochondrial mass in human MDA-MB-231 cells assessed as fold increase in mean fluorescence intensity at IC50 incubated for 48 hrs by MitoTracker Green FM staining based flow cytometry analysis relative to control; assay type: functional
[23] = Selectivity index, ratio of IC50 for cytotoxicity against human HaCaT cells to IC50 for cytotoxicity against human SW480 cells; assay type: toxicity, cell-based; conditions: HaCaT cells versus SW480 cells, read-out: Ratio IC50
PC-3 = assay: Cytotoxicity against human PC-3 cells incubated for 72 hrs by MTT assay; assay type: functional, cell-based; conditions: PC-3, 72 h
A549 [24] = assay: Effect on mitochondrial mass in human A549 cells assessed as fold increase in mean fluorescence intensity at IC50 incubated for 48 hrs by MitoTracker Green FM staining based flow cytometry analysis relative to control; assay type: functional
[25] = Selectivity index, ratio of IC50 for cytotoxicity against human HaCaT cells to IC50 for cytotoxicity against human A549 cells; assay type: toxicity, cell-based; conditions: HaCaT cells versus A549 cells, read-out: Ratio IC50
MDA-MB-231 [26] = assay: Cytotoxicity against human MDA-MB-231 cells incubated for 72 hrs by MTT assay; assay type: functional, cell-based; conditions: MDA-MB-231, 72 h
A549 [27] = assay: Cytotoxicity against human A549 cells incubated for 72 hrs by MTT assay; assay type: functional, cell-based; conditions: A549, 72 h
A549 [28] = assay: Effect on mitochondrial function in human A549 cells assessed as fold increase in mean fluorescence intensity at IC50 incubated for 48 hrs by MitoTracker Red CMXRos staining based flow cytometry analysis relative to control; assay type: functional
A549 [29] = assay: Induction of apoptosis in human A549 cells assessed as late apoptotic cells at IC50 incubated for 72 hrs by Annexin V-FITC staining based flow cytometry analysis (reference value: 1.86 %); assay type: functional
MDA-MB-231 [30] = assay: Induction of ROS generation of human MDA-MB-231 cells assessed as fold increase at IC50 incubated for 6 hrs by CellROX Green staining based spectrofluorometer analysis relative to control; assay type: functional
[31] = Cytotoxicity against human HaCaT cells incubated for 72 hrs by MTT assay; assay type: toxicity, cell-based
SW480 = assay: Cytotoxicity against human SW480 cells incubated for 72 hrs by MTT assay; assay type: functional, cell-based; conditions: SW480, 72 h
[32] = Selectivity index, ratio of IC50 for cytotoxicity against human HaCaT cells to IC50 for cytotoxicity against human MDA-MB-231 cells; assay type: toxicity, cell-based; conditions: HaCaT cells versus MDA-MB-231 cells, read-out: Ratio IC50
A549 [33] = assay: Induction of apoptosis in human A549 cells assessed as necrotic cells at IC50 incubated for 72 hrs by Annexin V-FITC staining based flow cytometry analysis (reference value: 0.97 %); assay type: functional
[34] = Selectivity index, ratio of IC50 for cytotoxicity against chinese hamster V79 cells to IC50 for cytotoxicity against human A549 cells; assay type: toxicity, cell-based; conditions: V79 cells versus A549 cells, read-out: Ratio IC50

## CCCC[P+](CCCC)(CCCC)CCCCOC(=O)[C@H](CC)[C@H]1CC[C@H](C)[C@H]([C@@H](C)[C@H](O)[C@H](C)C(=O)[C@H](CC)[C@H]2O[C@]3(C=C[C@@H](O)[C@]4(CC[C@@](C)([C@H]5CC[C@](O)(CC)[C@H](C)O5)O4)O3)[C@H](C)C[C@@H]2C)O1.[Br-]
Mitochondrial membrane [1]
  Activity: 70.7%
[2]
  selectivity ratio: 0.7
MDA-MB-231 [3]
  Activity: inactive
[4]
  MIC: 2 µg/mL
Staphylococcus aureus [5]
  MIC: 2 µg/mL
Staphylococcus aureus [6]
  MIC: 2 µg/mL
Mitochondrial membrane [7]
  Activity: 32.5%
A549 [8]
  Activity: Active
A549 [9]
  Activity: 19.91%
[10]
  selectivity ratio: 1.2
MDA-MB-231 [11]
  Activity: 33.55%
A549 [12]
  Activity: Active
MDA-MB-231 [13]
  Activity: 39.5%
A549 [14]
  Activity: Active
[15]
  selectivity ratio: 1.3
MDA-MB-231 [16]
  Activity: 90%
[17]
  IC50 at 72 h: 590 nM
A549 [18]
  Activity: 52.57%
MDA-MB-231 [19]
  Activity: 90%
A549 [20]
  Activity: 50%
[21]
  selectivity ratio: 1.1
MDA-MB-231 [22]
  fold change (FC): 8
[23]
  selectivity ratio: 1.4
PC-3
  IC50: 1450 nM
A549 [24]
  fold change (FC): 6
[25]
  selectivity ratio: 0.8
MDA-MB-231 [26]
  IC50: 900 nM
A549 [27]
  IC50: 860 nM
A549 [28]
  fold change (FC): 3
A549 [29]
  Activity: 14.59%
MDA-MB-231 [30]
  fold change (FC): 2
[31]
  IC50 at 72 h: 700 nM
SW480
  IC50: 490 nM
[32]
  selectivity ratio: 0.8
A549 [33]
  Activity: 12.94%
[34]
  selectivity ratio: 0.7

## CC[C@@H](C(=O)[C@@H](C)[C@@H](O)[C@H](C)[C@@H]1O[C@@H]([C@@H](CC)C(=O)OCCCC[P+](c2ccccc2)(c2ccccc2)c2ccccc2)CC[C@@H]1C)[C@H]1O[C@]2(C=C[C@@H](O)[C@]3(CC[C@@](C)([C@H]4CC[C@](O)(CC)[C@H](C)O4)O3)O2)[C@H](C)C[C@@H]1C.[Br-]
Mitochondrial membrane [1]
  Activity: 60.8%
[2]
  selectivity ratio: 0.2
MDA-MB-231 [3]
  Activity: inactive
[4]
  MIC: 2 µg/mL
Staphylococcus aureus [5]
  MIC: 2 µg/mL
Staphylococcus aureus [6]
  MIC: 1 µg/mL
Mitochondrial membrane [7]
  Activity: 41.7%
A549 [8]
  Activity: 12%
A549 [9]
  Activity: 31.8%
[10]
  selectivity ratio: 0.3
MDA-MB-231 [11]
  Activity: 51.49%
A549 [12]
  Activity: 13.2%
MDA-MB-231 [13]
  Activity: 27.96%
A549 [14]
  Activity: 6%
[15]
  selectivity ratio: 8.8
MDA-MB-231 [16]
  Activity: 50%
[17]
  IC50 at 72 h: 130 nM
A549 [18]
  Activity: 59.17%
MDA-MB-231 [19]
  Activity: 90%
A549 [20]
  Activity: 50%
[21]
  selectivity ratio: 0.9
MDA-MB-231 [22]
  fold change (FC): 8
[23]
  selectivity ratio: 3.2
PC-3
  IC50: 1350 nM
A549 [24]
  fold change (FC): 6
[25]
  selectivity ratio: 1.8
MDA-MB-231 [26]
  IC50: 740 nM
A549 [27]
  IC50: 670 nM
A549 [28]
  fold change (FC): 3
A549 [29]
  Activity: 3.9%
MDA-MB-231 [30]
  fold change (FC): 2
[31]
  IC50 at 72 h: 1230 nM
SW480
  IC50: 390 nM
[32]
  selectivity ratio: 1.7
A549 [33]
  Activity: 2.13%
[34]
  selectivity ratio: 0.2
